The results in this text go back to patent US12660819B2, “Herbicidal derivatives” (SYNGENTA CROP PROTECTION AG, priority 2020, dated 2026).

Common to all, as to assay type: in vivo
Assay [1] deals with Amaranthus palmeri (AMAPA). As to the kind of experiment: Post-emergence Test (glasshouse, percentage damage to the plant). The settings on record: post-emergence; 1000 g/ha unless otherwise stated; evaluated after 13 days. A digest of the protocol:
(§1)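 Sown pots; spray 1000 g/ha (unless stated) in acetone/water 50:50 + 0.5% Tween 20; glasshouse 24/16 °C, 14 h light, 65% RH; watered twice daily; % damage read at 13 days, scored 1–5.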

The subject of assay [2] is Amaranthus retoflexus (AMARE). The description is as above. The settings on record: post-emergence; 1000 g/ha unless otherwise stated; evaluated after 13 days. Put shortly:
as §1

The test system of assay [3] is Ipomoea hederacea (IPOHE). The assay is described as above. The settings on record: post-emergence; 1000 g/ha unless otherwise stated; evaluated after 13 days. A digest of the protocol:
(§2)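 Compound formulated in 50:50 acetone/water with 0.5% Tween 20 was diluted to an aqueous spray and applied at 1000 g/ha, unless otherwise stated, onto sown pots. Evaluation after 13 days gave percentage damage, banded into a 1–5 score.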

Assay [4] deals with Setaria faberi (SETFA). Described as above. The settings on record: post-emergence; 1000 g/ha unless otherwise stated; evaluated after 13 days. A digest of the protocol: as §2
For assay [5], the system named is Zea mays (ZEAMX). The assay is described as above. The settings on record: post-emergence; 1000 g/ha unless otherwise stated; evaluated after 13 days. A digest of the protocol: as §2
Assay [6] has as its system Amaranthus retoflexus (AMARE). As to the kind of experiment: Pre-emergence Test (glasshouse, percentage damage to the plant). The settings on record: 1000 g/ha unless otherwise stated, Amaranthus retoflexus.
In assay [7] the test system is Setaria faberi (SETFA). The description is as above. The settings on record: 1000 g/ha unless otherwise stated, Setaria faberi.
For assay [8], the system named is Echinochloa crus-galli (ECHCG). The description is as above. The conditions noted are these: 1000 g/ha unless otherwise stated, Echinochloa crus-galli.
For assay [9], the system named is Ipomoea hederacea (IPOHE). The assay is described as above. The settings on record: 1000 g/ha unless otherwise stated, Ipomoea hederacea.
Assay [10] deals with Zea mays (ZEAMX). Described as above. The settings on record: 1000 g/ha unless otherwise stated, Zea mays.
In assay [11] the test system is Amaranthus palmeri (AMAPA). Described as above. The settings on record: 1000 g/ha unless otherwise stated, Amaranthus palmeri.

Take `CCn1c(C)c(-c2cccc3c2OC(F)(F)O3)c(=O)c(C(=O)O)c1-c1ccc(Cl)c(Cl)c1` [Compound 223, 2-(3,4-dichlorophenyl)-5-(2,2-difluoro-1,3-benzodioxol-4-yl)-1-ethyl-6-methyl-4-oxo-pyridine-3-carboxylic acid]: the “AMAPA, percentage damage caused to the plant (five-point scale)” value (shortened to “AMAPA, percentage damage caused”) in assay [1] was 5 (5=81-100%). Besides, in [2], the “AMARE, percentage damage caused to the plant (five-point scale)” value (“AMARE, percentage damage caused” for short) is reported as 5 (5=81-100%). Further, in [3], the “IPOHE, percentage damage caused to the plant (five-point scale)” value (“IPOHE, percentage damage caused” below) is reported as 1 (1=0-20%). The “SETFA, percentage damage caused to the plant (five-point scale)” value (shortened to “SETFA, percentage damage caused”) in the assay with Setaria faberi (SETFA) [4] is 3 (3=41-60%). Also, in the assay with Zea mays (ZEAMX) [5], the “ZEAMX, percentage damage caused to the plant (five-point scale)” value (“ZEAMX, percentage damage caused” for short) is listed as 1 (1=0-20%). The “percentage damage to the plant, AMARE (five-point scale)” value (“percentage damage to the plant, AMARE” below) in assay [6] is given as 1 (1=0-20%). Also, the “percentage damage to the plant, SETFA (five-point scale)” value (shortened to “percentage damage to the plant, SETFA”) in the assay with Setaria faberi (SETFA) [7] is recorded as 3 (3=41-60%). In addition, the “percentage damage to the plant, ECHCG (five-point scale)” value (“percentage damage to the plant, ECHCG” for short) in [8] is listed as 1 (1=0-20%). For the same molecule, in assay [9], the “percentage damage to the plant, IPOHE (five-point scale)” value (“percentage damage to the plant, IPOHE” below) came to 0. For the same molecule, the “percentage damage to the plant, ZEAMX (five-point scale)” value (shortened to “percentage damage to the plant, ZEAMX”) with Zea mays (ZEAMX) [10] was 1 (1=0-20%). In addition, the “percentage damage to the plant, AMAPA (five-point scale)” value (“percentage damage to the plant, AMAPA” for short) in assay [11] is 3 (3=41-60%).

Consider `CCn1c(C)c(-c2cc(OC(F)(F)F)ccc2Cl)c(=O)c(C(=O)O)c1-c1ccc(Cl)c(Cl)c1` [Compound 224, 5-[2-chloro-5-(trifluoromethoxy)phenyl]-2-(3,4-dichlorophenyl)-1-ethyl-6-methyl-4-oxo-pyridine-3-carboxylic acid], for which the “AMAPA, percentage damage caused” value in assay [1] is on record as 5 (5=81-100%). The “AMARE, percentage damage caused” value in assay [2] is listed as 5 (5=81-100%). The “IPOHE, percentage damage caused” value in assay [3] is listed as 2 (2=21-40%). Also, in the assay with Setaria faberi (SETFA) [4], the “SETFA, percentage damage caused” value is 5 (5=81-100%). Besides, the “ZEAMX, percentage damage caused” value with Zea mays (ZEAMX) [5] is on record as 3 (3=41-60%). In addition, the “percentage damage to the plant, AMARE” value in assay [6] is given as 3 (3=41-60%). Besides, the “percentage damage to the plant, SETFA” value with Setaria faberi (SETFA) [7] is reported as 5 (5=81-100%). Further, the “percentage damage to the plant, ECHCG” value in [8] was 5 (5=81-100%). Besides, the “percentage damage to the plant, IPOHE” value in [9] is given as 2 (2=21-40%). Further, the “percentage damage to the plant, ZEAMX” value in the assay on Zea mays (ZEAMX) [10] was 2 (2=21-40%). Moreover, the “percentage damage to the plant, AMAPA” value in assay [11] is 4 (4=61-80%).

Consider `CCn1c(C)c(-c2cc(C)ccc2C)c(=O)c(C(=O)O)c1-c1ccc(Cl)c(Cl)c1` [Compound 225, 2-(3,4-dichlorophenyl)-5-(2,5-dimethylphenyl)-1-ethyl-6-methyl-4-oxo-pyridine-3-carboxylic acid], for which, in assay [1], the “AMAPA, percentage damage caused” value is 5 (5=81-100%). The “AMARE, percentage damage caused” value in [2] was 4 (4=61-80%). Moreover, the “IPOHE, percentage damage caused” value in assay [3] is on record as 1 (1=0-20%). In addition, the “SETFA, percentage damage caused” value in the assay with Setaria faberi (SETFA) [4] is 1 (1=0-20%). In addition, the “ZEAMX, percentage damage caused” value with Zea mays (ZEAMX) [5] is 1 (1=0-20%). The “percentage damage to the plant, AMARE” value in assay [6] is listed as 0. Moreover, in the assay with Setaria faberi (SETFA) [7], the “percentage damage to the plant, SETFA” value came to 0. Moreover, in assay [8], the “percentage damage to the plant, ECHCG” value was 1 (1=0-20%). In addition, the “percentage damage to the plant, IPOHE” value in assay [9] was determined as 0. In addition, in the assay with Zea mays (ZEAMX) [10], the “percentage damage to the plant, ZEAMX” value amounted to 0. Further, in assay [11], the “percentage damage to the plant, AMAPA” value was determined as 0.

With `CCn1c(C)c(-c2cccc(C)c2F)c(=O)c(C(=O)O)c1-c1ccc(Cl)c(Cl)c1` [Compound 228, 2-(3,4-dichlorophenyl)-1-ethyl-5-(2-fluoro-3-methyl-phenyl)-6-methyl-4-oxo-pyridine-3-carboxylic acid], in [1], the “AMAPA, percentage damage caused” value is 5 (5=81-100%). For the same molecule, the “AMARE, percentage damage caused” value in [2] is given as 4 (4=61-80%). Moreover, the “IPOHE, percentage damage caused” value in [3] is on record as 3 (3=41-60%). In addition, in the assay with Setaria faberi (SETFA) [4], the “SETFA, percentage damage caused” value is listed as 3 (3=41-60%). Besides, in the assay with Zea mays (ZEAMX) [5], the “ZEAMX, percentage damage caused” value is given as 2 (2=21-40%). The “percentage damage to the plant, AMARE” value in assay [6] is on record as 2 (2=21-40%). For the same molecule, the “percentage damage to the plant, SETFA” value in the assay with Setaria faberi (SETFA) [7] was 5 (5=81-100%). Further, the “percentage damage to the plant, ECHCG” value in assay [8] is given as 5 (5=81-100%). The “percentage damage to the plant, IPOHE” value in [9] is 3 (3=41-60%). In addition, the “percentage damage to the plant, ZEAMX” value with Zea mays (ZEAMX) [10] is reported as 2 (2=21-40%). In assay [11], the “percentage damage to the plant, AMAPA” value is 4 (4=61-80%).

`CCn1c(C)c(-c2cc(Cl)ccc2F)c(=O)c(C(=O)O)c1-c1ccc(Cl)c(Cl)c1` [Compound 229, 5-(5-chloro-2-fluoro-phenyl)-2-(3,4-dichlorophenyl)-1-ethyl-6-methyl-4-oxo-pyridine-3-carboxylic acid]: in [1], the “AMAPA, percentage damage caused” value is on record as 5 (5=81-100%). For the same molecule, the “AMARE, percentage damage caused” value in assay [2] was 5 (5=81-100%). Besides, the “IPOHE, percentage damage caused” value in [3] is listed as 3 (3=41-60%). Besides, the “SETFA, percentage damage caused” value in the assay on Setaria faberi (SETFA) [4] is recorded as 1 (1=0-20%). In addition, the “ZEAMX, percentage damage caused” value with Zea mays (ZEAMX) [5] is given as 1 (1=0-20%). Also, the “percentage damage to the plant, AMARE” value in [6] is given as 4 (4=61-80%). For the same molecule, the “percentage damage to the plant, SETFA” value in the assay on Setaria faberi (SETFA) [7] is 1 (1=0-20%). The “percentage damage to the plant, ECHCG” value in [8] was 0. Also, the “percentage damage to the plant, IPOHE” value in assay [9] is recorded as 1 (1=0-20%). The “percentage damage to the plant, ZEAMX” value in the assay with Zea mays (ZEAMX) [10] is recorded as 0. Besides, the “percentage damage to the plant, AMAPA” value in assay [11] is given as 4 (4=61-80%).

For the molecule `CCn1c(C)c(-c2cc(C)ccc2F)c(=O)c(C(=O)O)c1-c1ccc(Cl)c(Cl)c1` [Compound 231, 2-(3,4-dichlorophenyl)-1-ethyl-5-(2-fluoro-5-methyl-phenyl)-6-methyl-4-oxo-pyridine-3-carboxylic acid], the “AMAPA, percentage damage caused” value in assay [1] is 5 (5=81-100%). In addition, the “AMARE, percentage damage caused” value in assay [2] was 5 (5=81-100%). The “IPOHE, percentage damage caused” value in assay [3] is reported as 3 (3=41-60%). In the assay with Setaria faberi (SETFA) [4], the “SETFA, percentage damage caused” value is recorded as 3 (3=41-60%). Besides, the “ZEAMX, percentage damage caused” value with Zea mays (ZEAMX) [5] is 1 (1=0-20%). Further, the “percentage damage to the plant, AMARE” value in assay [6] was 3 (3=41-60%). Moreover, in the assay with Setaria faberi (SETFA) [7], the “percentage damage to the plant, SETFA” value was 4 (4=61-80%). Besides, the “percentage damage to the plant, ECHCG” value in assay [8] is listed as 2 (2=21-40%). For the same molecule, in assay [9], the “percentage damage to the plant, IPOHE” value worked out at 0. For the same molecule, the “percentage damage to the plant, ZEAMX” value with Zea mays (ZEAMX) [10] is given as 0. Besides, the “percentage damage to the plant, AMAPA” value in [11] is listed as 4 (4=61-80%).

For the molecule `CCn1c(C)c(-c2ccc(F)c(OC)c2F)c(=O)c(C(=O)O)c1-c1ccc(Cl)c(Cl)c1` [Compound 234, 2-(3,4-dichlorophenyl)-5-(2,4-difluoro-3-methoxy-phenyl)-1-ethyl-6-methyl-4-oxo-pyridine-3-carboxylic acid], the “AMAPA, percentage damage caused” value in assay [1] is 5 (5=81-100%). For the same molecule, in assay [2], the “AMARE, percentage damage caused” value is on record as 4 (4=61-80%). The “IPOHE, percentage damage caused” value in assay [3] is recorded as 4 (4=61-80%). Further, the “SETFA, percentage damage caused” value in the assay with Setaria faberi (SETFA) [4] was 4 (4=61-80%). In addition, the “ZEAMX, percentage damage caused” value in the assay on Zea mays (ZEAMX) [5] was 3 (3=41-60%). In [6], the “percentage damage to the plant, AMARE” value was 2 (2=21-40%). For the same molecule, the “percentage damage to the plant, SETFA” value in the assay on Setaria faberi (SETFA) [7] is listed as 5 (5=81-100%). In [8], the “percentage damage to the plant, ECHCG” value is given as 5 (5=81-100%). Also, in [9], the “percentage damage to the plant, IPOHE” value was 4 (4=61-80%). Moreover, the “percentage damage to the plant, ZEAMX” value with Zea mays (ZEAMX) [10] is recorded as 2 (2=21-40%). Besides, the “percentage damage to the plant, AMAPA” value in assay [11] was 3 (3=41-60%).
